In patent publication US11633370B2, “Use of scavengers of reactive gamma-ketoaldehydes to extend cell lifespan and healthspan” (Vanderbilt University, priority 2016, dated 2023):
pIC50: −log10 of the molar value.

Target: T1, recombinant human SIRT1 (Homo sapiens, UniProt Q96EB6)
T1 construct: purchased R&D Systems, Biotechne
T1 sequence (Q96EB6 1-747): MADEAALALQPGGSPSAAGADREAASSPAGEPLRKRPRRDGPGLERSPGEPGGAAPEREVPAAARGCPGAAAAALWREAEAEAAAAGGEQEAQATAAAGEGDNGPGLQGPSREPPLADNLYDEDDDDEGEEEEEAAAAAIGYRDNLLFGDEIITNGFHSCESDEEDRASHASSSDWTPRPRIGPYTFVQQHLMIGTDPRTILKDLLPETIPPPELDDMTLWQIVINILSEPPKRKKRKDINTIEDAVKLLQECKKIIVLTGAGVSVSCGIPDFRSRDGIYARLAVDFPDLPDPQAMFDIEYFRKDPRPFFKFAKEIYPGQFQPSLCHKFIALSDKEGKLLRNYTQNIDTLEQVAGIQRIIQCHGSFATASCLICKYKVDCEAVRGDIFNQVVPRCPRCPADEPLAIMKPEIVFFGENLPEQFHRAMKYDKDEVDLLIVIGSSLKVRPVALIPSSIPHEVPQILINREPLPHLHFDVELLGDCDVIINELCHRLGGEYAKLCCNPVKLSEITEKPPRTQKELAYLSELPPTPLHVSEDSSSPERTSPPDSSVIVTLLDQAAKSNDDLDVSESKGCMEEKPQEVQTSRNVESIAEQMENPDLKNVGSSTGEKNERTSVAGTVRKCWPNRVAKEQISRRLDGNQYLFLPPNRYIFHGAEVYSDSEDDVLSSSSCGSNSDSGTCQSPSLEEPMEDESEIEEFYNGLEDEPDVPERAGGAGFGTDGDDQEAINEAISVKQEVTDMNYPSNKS
Assay: NAD+-dependent deacetylation bioluminescence assay (SIRT-Glo)
Type: biochemical
Details: Sirt-Glo luminescence assay, three independent experiments; read-out: IC50, inhibition of deacetylase activity
Experimental: Though SA treatment should prevent IsoK adduct formation on many different protein targets, and many of these proteins could have some impact on lifespan and healthspan, the present inventors determined that there would be specific proteins of particular importance in mediating SA's beneficial effects. Specifically, the present inventors recognized that SIR-2.1 would be one of these “high value targets” for several reasons. […] Recombinant human SIRT1 was incubated with increasing concentrations of synthetically pure IsoK, and enzymatic deacetylase activity was assessed using the luminescence based Sirt-Glo assay (Promega).
Relative activity of the NAD+-dependent histone deacetylase (HDAC) class III enzymes (sirtuins) was measured using the SIRT-Glo™ Assay and Screening System (Promega Corporation, Madison, Wis.) according to the manufacturer's instructions with minor modifications. […] Deacetylation of the peptide substrate is measured using a coupled enzymatic system with a protease in the reagent provided and then cleaves the luminogenic peptide to liberate aminoluciferin. Free aminoluciferin can be quantified using the Ultra-Glo™ firefly luciferase reaction to produce a stable, persistent emission of light. […] 15-E2-IsoK was synthesized by the method of Armanath et al. Luminescence was detected by a microplate reader (FLUOstar Optima microplate reader, BMG Labtechnologies).

15-E2-IsoK gave a pIC50 of 4.01.
